Ki data for 17 molecules are collected here from US7129238B2, “Mandelic acid derivatives” (Hoffmann-La Roche Inc., priority 2002, dated 2006).

One may read the Ki as the dissociation constant of the complex between target and ligand, obtained from inhibition or displacement. Low values mean a stronger hold on the target, high ones a looser hold on the target.

Counter-ions that a name gives are not always drawn.

For the experiment, the target named is T1, factor VIIa/tissue factor complex (Homo sapiens, UniProt P08709).
T1 construct: 9 nM of soluble factor VIIa
T1 sequence (P08709 213-466 limits assumed): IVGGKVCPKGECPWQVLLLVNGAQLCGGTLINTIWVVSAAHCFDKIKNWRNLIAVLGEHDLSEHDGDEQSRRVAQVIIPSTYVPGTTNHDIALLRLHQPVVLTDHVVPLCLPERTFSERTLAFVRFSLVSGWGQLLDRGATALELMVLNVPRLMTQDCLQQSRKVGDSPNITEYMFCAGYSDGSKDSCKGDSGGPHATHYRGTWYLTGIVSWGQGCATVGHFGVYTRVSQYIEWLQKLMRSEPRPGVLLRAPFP
T1 sequence (P08709 61-212 limits assumed): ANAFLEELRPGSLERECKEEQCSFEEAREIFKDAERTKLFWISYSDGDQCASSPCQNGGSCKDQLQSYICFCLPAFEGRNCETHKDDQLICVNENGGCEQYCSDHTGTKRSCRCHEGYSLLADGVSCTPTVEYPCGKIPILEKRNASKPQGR
T1 sequence (P13726 33-295 partner): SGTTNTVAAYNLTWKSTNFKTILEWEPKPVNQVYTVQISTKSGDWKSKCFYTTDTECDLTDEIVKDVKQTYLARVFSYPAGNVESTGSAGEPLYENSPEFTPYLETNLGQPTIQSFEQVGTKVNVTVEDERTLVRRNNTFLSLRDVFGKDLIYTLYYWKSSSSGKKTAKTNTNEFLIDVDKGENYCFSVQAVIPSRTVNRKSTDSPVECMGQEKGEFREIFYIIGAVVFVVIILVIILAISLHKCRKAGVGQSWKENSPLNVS
Kind of experiment: inhibition of the amidolytic activity of factor VIIa/tissue factor complex (chromogenic peptide substrate). The note with it: soluble factor VIIa, substrate Chromozym-tPA, pH 7.5, room temperature. It is filed as biochemical. The protocol: The measurements were carried out by an automated robotic assay on microtitre plates at room temperature. To this end, 100 μL of a solution of 26 nM of tissue factor, 9 nM of soluble factor VIIa and 8 mM of calcium chloride were added to 25 μL of a solution of the inhibitor in a buffer [pH 7.5, 100 mM, comprising 0.14M NaCl, 0.1M N-(2-hydroxyethyl)piperazine-N′-(2-ethanesulphonic acid) (HEPES), 0.5 mg/l of fatty-acid-free BSA (bovine serum albumin) and 0.05% NaN3] in each well of the plate. After an incubation time of 15 minutes the reaction was started by the addition of 50 μl of chromogenic substrate Chromozym-tPA (3.5 mM, MeSO2-D-Phe-Gly-Arg-paranitroanilide) and the hydrolysis of the substrate was followed spectrophotometrically on a kinetic microtitre plate reader over 10 minutes. Using the plot of the inhibition curves, the Ki values were determined according to the method described in Biochem. J. 55, 1953, 170–171.
Molecule `COc1cc(F)c(C(OC)C(=O)NCc2ccc(C(=N)N)cc2)cc1OC` (racemic) [Example 24.3, (RS)-N-(4-carbamimidoyl-benzyl)-2-(2-fluoro-4,5-dimethoxy-phenyl)-2-methoxy-acetamide hydrochloride] showed an inhibition constant (Ki) of 2210 nM.

In turn, `CCOc1ccc(C(OC)C(=O)NCc2ccc(C(=N)N)cc2)c(F)c1OCC` (racemic) [Example 33.3, (RS)-N-(4-carbamimidoyl-benzyl)-2-(3,4-diethoxy-2-fluoro-phenyl)-2-methoxy-acetamide hydrochloride] registered an inhibitory constant (Ki) of 490 nM.

`COc1ccc2cc(C(OC)C(=O)NCc3ccc(C(=N)N)cc3)ccc2c1` (racemic) [Example 53.3, (RS)-N-(4-carbamimidoyl-benzyl)-2-methoxy-2-(6-methoxy-naphthalen-2-yl)-acetamide hydrochloride] returned a Ki of 2260 nM. `COC(C(=O)NCc1ccc(C(=N)N)cc1)c1ccc(OCCc2ccc(F)cc2)cc1F` (racemic) [Example 72.2, (RS)-N-(4-carbamimidoyl-benzyl)-2-{2-fluoro-4-[2-(4-fluoro-phenyl)-ethoxy]-phenyl}-2-methoxy-acetamide hydrochloride]: the affinity, expressed as Ki, was 2100 nM. Then `CCOC(C(=O)NCc1ccc(C(=N)N)cc1OCC(N)=O)c1c(F)cc(OC)cc1F` (racemic) [Example 126.3, (RS)-N-(4-carbamimidoyl-2-carbamoylmethoxy-benzyl)-2-(2,6-difluoro-4-methoxy-phenyl)-2-ethoxy-acetamide hydrochloride], with 20 nM.

The molecule `CCOC(C(=O)NCc1ccc(C(=N)N)cc1OCC(=O)NCCOC)c1c(F)cc(OC)cc1F` (racemic) [Example 129, (RS)-N-{4-Carbamimidoyl-2-[(2-methoxy-ethylcarbamoyl)-methoxy]-benzyl}-2-(2,6-difluoro-4-methoxy-phenyl)-2-ethoxy-acetamide hydrochloride] registered an inhibitory constant (Ki) of 21 nM. The molecule `COc1cc(F)c(C(OC)C(=O)NCc2ccc(C(=N)N)cc2OCc2ccccn2)c(F)c1` (racemic) [Example 141, (RS)-N-[4-carbamimidoyl-2-(pyridin-2-ylmethoxy)-benzyl]-2-(2,6-difluoro-4-methoxy-phenyl)-2-methoxy-acetamide hydrochloride] returned a Ki of 44 nM. In the case of `CCOC(C(=O)NCc1ccc(C(=N)N)cc1)c1c(F)cc(-c2cnc(N)nc2)cc1F` (racemic) [Example 266, (RS)-2-[4-(2-Amino-pyrimidin-5-yl)-2,6-difluoro-phenyl]-N-(4-carbamimidoyl-benzyl)-2-ethoxy-acetamide hydrochloride], the Ki is 242 nM.

With `CCOC(C(=O)NCc1ccc(C(=N)N)cc1)c1c(F)cc(-c2cccnc2)cc1F` (racemic) [Example 267, (RS)-N-(4-Carbamimidoyl-benzyl)-2-(2,6-difluoro-4-pyridin-3-yl-phenyl)-2-ethoxy-acetamide hydrochloridr], the inhibition constant Ki came out at 371 nM.

On to `CCOC(C(=O)NCc1ccc(C(=N)N)cc1)c1c(F)cc(-c2ccc(N)cn2)cc1F` (racemic) [Example 269, (RS)-2-[4-(5-Amino-pyridin-2-yl)-2,6-difluoro-phenyl]-N-(4-carbamimidoyl-benzyl)-2-ethoxy-acetamide hydrochloride], for which the affinity corresponds to a Ki of 320 nM. `CCOC(C(=O)NCc1ccc(C(=N)N)cc1)c1c(F)cc(-c2ccc(N)nc2)cc1F` (racemic) [Example 271, (RS)-(2-[4-(6-Amino-pyridin-3-yl)-2,6-difluoro-phenyl]-N-(4-carbamimidoyl-benzyl)-2-ethoxy-acetamide hydrochloride] returned an inhibitory constant (Ki) of 154 nM. Then `CCOC(C(=O)NCc1ccc(C(=N)N)cc1)c1c(F)cc(OCc2ccccn2)cc1F` (racemic) [Example 294.2, (RS)-N-(4-carbamimidoyl-benzyl)-2-[2,6-difluoro-4-(pyridin-2-ylmethoxy)-phenyl]-2-ethoxy-acetamide hydrochloride], with 586 nM. To `CCOC(C(=O)NCc1ccc(C(=N)N)cc1NCc1ccccc1)c1ccc(OC)cc1F` (racemic) [Example 323, (RS)-N-(2-Benzylamino-4-carbamimidoyl-benzyl)-2-ethoxy-2-(2-fluoro-4-methoxy-phenyl)-acetamide acetate] belongs 65 nM. To `CCOC(C(=O)NCc1ccc(C(=N)N)cc1NCC(=O)O)c1ccc(OC)cc1F` (racemic) [Example 329, (RS)-(5-carbamimidoyl-2-j [2-ethoxy-2-(2-fluoro-4-methoxy-phenyl)-acetylamino]-methyl)-phenylamino)-acetic acid acetate] belongs 121 nM; to `CCOC(C(=O)NCc1c(F)cc(C(=N)N)cc1F)c1c(F)cc(-c2ccc(N)nc2)cc1F` (racemic) [Example 336.2, (RS)-2-[4-(6-amino-pyridin-3-yl)-2,6-difluoro-phenyl]-N-(4-carbamimidoyl-2,6-difluoro-benzyl)-2-ethoxy-acetamide acetate], 598 nM. Molecule “(RS)-(4-carbamimidoyl-2-carbamoylmethoxy-benzyl)-2-[2,6-difluoro-4-(pyridin-2-ylmethoxy)-phenyl]-2-ethoxy-acetamide hydrochloride [Example 335.5]” returned a Ki of 17 nM. To “(RS)-{4-Carbamimidoyl-2-[(pyridin-2-ylmethyl)-amino]-benzyl}-2-ethoxy-2-(2-fluoro-4-methoxy-phenyl)-acetamide hydrochloride [Example 325]” belongs 77 nM.
